Literature values, collected in US20200121704A1, “METHODS FOR TREATING HYPERTENSION AND ARTERIAL STIFFNESS” (THE REGENTS OF THE UNIVERSITY OF COLORADO, A BODY CORPORATE, priority 2017, published 2020).

How the values were obtained:
[1] = system: old mice; settings: supplementation; cited from earlier work
[2] = system: Klotho deficient mice; settings: cited from earlier work
[3] = system: ET-1; settings: animal models of hypercholesterolemia and cardiac hypertrophy; cited from earlier work
[4] = system: endothelial cells; settings: cited from earlier work

NC(=O)c1ccc[n+]([C@@H]2O[C@H](COP(=O)([O-])O)[C@@H](O)[C@H]2O)c1 [NMN, nicotinamide mononucleotide]
Aortic stiffening [1]: reverses aortic stiffening in old mice to youthful levels

O=C(Nc1ccccc1-c1cn2c(CN3CCNCC3)csc2n1)c1cnc2ccccc2n1 [SRT1720]
Development of hypertension ([2]; Klotho deficient mice (a model of accelerated aging)): protects against the development of hypertension
Development of arterial stiffness ([2]; klotho deficient mice): prevented the development of arterial stiffness

Oc1ccc(C=Cc2cc(O)cc(O)c2)cc1 [resveratrol]
Circulating ET-1 levels [3]: decreases circulating ET-1 levels
Secretion of ET-1 by endothelial cells [4]: suppressed
